According to PubChem BioAssay AID248 (DTP/NCI, 2004):
Toxic doses and inconclusive results are not listed.

Tested on: L1210 leukemia ip in BDF1 mice, survival T/C
Assay: NCI In Vivo Anticancer Drug Screen. Data for tumor model L1210 Leukemia (intraperitoneal) in B6D2F1 (BDF1) mice
Settings: endpoint: mean survival time, higher = longer survival
In short: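 In this screen, tumor-bearing mice given compound are compared to those given vehicle, and their survival values are reported as a treated-to-control quotient.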

[1] = dose: 100.0 mg/kg/injection, schedule: Q01DX001 (ip), vehicle: Klucel (hydroxypropylcellulose) (HPC)
[2] = dose: 200.0 mg/kg/injection, schedule: Q01DX001 (ip), vehicle: Klucel (hydroxypropylcellulose) (HPC)
[3] = dose: 400.0 mg/kg/injection, schedule: Q01DX001 (ip), vehicle: Klucel (hydroxypropylcellulose) (HPC)
[4] = dose: 25.0 mg/kg/injection, schedule: Q04DX003 (ip), vehicle: saline
[5] = dose: 50.0 mg/kg/injection, schedule: Q01DX009 (ip), vehicle: saline
[6] = dose: 50.0 mg/kg/injection, schedule: Q04DX003 (ip), vehicle: saline
[7] = dose: 100.0 mg/kg/injection, schedule: Q01DX009 (ip), vehicle: saline
[8] = dose: 100.0 mg/kg/injection, schedule: Q04DX003 (ip), vehicle: saline
[9] = dose: 100.0 mg/kg/injection, schedule: Q04DX003 (ip), vehicle: saline with Tween-80
[10] = dose: 200.0 mg/kg/injection, schedule: Q04DX003 (ip), vehicle: saline with Tween-80
[11] = dose: 400.0 mg/kg/injection, schedule: Q04DX003 (ip), vehicle: saline with Tween-80
[12] = dose: 100.0 mg/kg/injection, schedule: Q01DX001 (ip), vehicle: carboxymethylcellulose (CMC)
[13] = dose: 200.0 mg/kg/injection, schedule: Q01DX001 (ip), vehicle: carboxymethylcellulose (CMC)
[14] = dose: 400.0 mg/kg/injection, schedule: Q01DX001 (ip), vehicle: carboxymethylcellulose (CMC)
[15] = dose: 100.0 mg/kg/injection, schedule: Q01DX001 (sc), vehicle: steriod suspending solution
[16] = dose: 200.0 mg/kg/injection, schedule: Q01DX001 (sc), vehicle: steriod suspending solution

c1ccc([P+](Cc2cccc3c2Cc2ccccc2-3)(c2ccccc2)c2ccccc2)cc1
T/C (dose: 15.0 mg/kg/injection, schedule: Q01DX001 (ip), vehicle: carboxymethylcellulose (CMC)): 104 % of control

Nc1csc2ncccc12
T/C [1]: 112 % of control
T/C [2]: 105 % of control
T/C [3]: 114 % of control

NC(=O)C(c1ccccc1)N1CCCC1 (centres undefined)
T/C (dose: 25.0 mg/kg/injection, schedule: Q01DX009 (ip), vehicle: saline): 91 % of control
T/C [4]: 98 % of control
T/C [5]: 94 % of control
T/C [6]: 97 % of control
T/C [7]: 91 % of control
T/C [8]: 95 % of control

CC1(C)N=C(N)N=C(N)N1c1cccc(OCCOc2cccc([N+](=O)[O-])c2)c1
T/C (dose: 5.0 mg/kg/injection, schedule: Q01DX001 (ip), vehicle: saline): 105 % of control
T/C (dose: 10.0 mg/kg/injection, schedule: Q01DX001 (ip), vehicle: saline): 102 % of control
T/C (dose: 20.0 mg/kg/injection, schedule: Q01DX001 (ip), vehicle: saline): 103 % of control
T/C (dose: 40.0 mg/kg/injection, schedule: Q01DX001 (ip), vehicle: saline): 100 % of control
T/C (dose: 80.0 mg/kg/injection, schedule: Q01DX001 (ip), vehicle: saline): 100 % of control

COC(=O)N1c2ccccc2C=C(NC(C)=O)C1C#N (centres undefined)
T/C (dose: 100.0 mg/kg/injection, schedule: Q01DX009 (ip), vehicle: saline with Tween-80): 117 % of control
T/C [9]: 103 % of control
T/C (dose: 200.0 mg/kg/injection, schedule: Q01DX009 (ip), vehicle: saline with Tween-80): 98 % of control
T/C [10]: 95 % of control
T/C (dose: 400.0 mg/kg/injection, schedule: Q01DX009 (ip), vehicle: saline with Tween-80): 98 % of control
T/C [11]: 94 % of control

c1ccc2c(c1)ccc1c3c([nH]c12)CCCC3
T/C [12]: 88 % of control
T/C [13]: 98 % of control
T/C [14]: 88 % of control

CC[N+]([O-])(CC)CCNc1ccc(CO)c2sc3ccccc3c(=O)c12
T/C [5]: 92 % of control
T/C [7]: 121 % of control

O=[N+]([O-])c1cccc(S(=O)(=O)OCCOc2ccccc2)c1
T/C [9]: 103 % of control
T/C [10]: 101 % of control
T/C [11]: 101 % of control

C=CCOCC(O)CNCCCOC (centres undefined)
T/C [7]: 107 % of control
T/C [8]: 96 % of control
T/C (dose: 200.0 mg/kg/injection, schedule: Q01DX009 (ip), vehicle: saline): 98 % of control
T/C (dose: 200.0 mg/kg/injection, schedule: Q04DX003 (ip), vehicle: saline): 98 % of control

CCC1CN2C(=N1)c1ccccc1-c1cc(Cl)ccc12 (centres undefined)
T/C (dose: 6.25 mg/kg/injection, schedule: Q01DX009 (ip), vehicle: suspension in saline): 102 % of control
T/C (dose: 10.0 mg/kg/injection, schedule: Q01DX001 (ip), vehicle: Klucel (hydroxypropylcellulose) (HPC)): 103 % of control
T/C (dose: 10.0 mg/kg/injection, schedule: Q01DX009 (ip), vehicle: Klucel (hydroxypropylcellulose) (HPC)): 90 % of control
T/C (dose: 12.5 mg/kg/injection, schedule: Q01DX009 (ip), vehicle: suspension in saline): 102 % of control
T/C (dose: 20.0 mg/kg/injection, schedule: Q01DX001 (ip), vehicle: Klucel (hydroxypropylcellulose) (HPC)): 114 % of control
T/C (dose: 20.0 mg/kg/injection, schedule: Q01DX009 (ip), vehicle: Klucel (hydroxypropylcellulose) (HPC)): 90 % of control
T/C (dose: 20.0 mg/kg/injection, schedule: Q01DX009 (ip), vehicle: saline): 111 % of control
T/C (dose: 20.0 mg/kg/injection, schedule: Q04DX002 (ip), vehicle: saline): 114 % of control
T/C (dose: 20.0 mg/kg/injection, schedule: Q04DX003 (ip), vehicle: Klucel (hydroxypropylcellulose) (HPC)): 88 % of control
T/C (dose: 25.0 mg/kg/injection, schedule: Q01DX009 (ip), vehicle: suspension in saline): 110 % of control
T/C (dose: 40.0 mg/kg/injection, schedule: Q01DX001 (ip), vehicle: Klucel (hydroxypropylcellulose) (HPC)): 108 % of control
T/C (dose: 40.0 mg/kg/injection, schedule: Q04DX002 (ip), vehicle: saline): 118 % of control
T/C (dose: 40.0 mg/kg/injection, schedule: Q04DX003 (ip), vehicle: Klucel (hydroxypropylcellulose) (HPC)): 88 % of control
T/C (dose: 80.0 mg/kg/injection, schedule: Q01DX009 (ip), vehicle: saline): 188 % of control
T/C (dose: 80.0 mg/kg/injection, schedule: Q04DX002 (ip), vehicle: saline): 122 % of control

O=C(O)C(Oc1ccc(Cl)cc1)c1ccc(Cl)cc1 (centres undefined)
T/C (dose: 100.0 mg/kg/injection, schedule: Q04DX003 (ip), vehicle: Klucel (hydroxypropylcellulose) (HPC)): 96 % of control
T/C (dose: 200.0 mg/kg/injection, schedule: Q04DX003 (ip), vehicle: Klucel (hydroxypropylcellulose) (HPC)): 91 % of control

CC1=C(CO)C(=O)O[C@@H]([C@@H](C)[C@H]2CC[C@H]3[C@@H]4C[C@H]5O[C@]56[C@@H](O)C=CC(=O)[C@]6(C)[C@H]4CC[C@]23C)C1
T/C (dose: 10.0 mg/kg/injection, schedule: Q01DX Z (ip), vehicle: carboxymethylcellulose (CMC)): 98 % of control
T/C (dose: 20.0 mg/kg/injection, schedule: Q01DX Z (ip), vehicle: carboxymethylcellulose (CMC)): 101 % of control
T/C (dose: 50.0 mg/kg/injection, schedule: Q01DX001 (sc), vehicle: steriod suspending solution): 103 % of control
T/C [15]: 100 % of control
T/C [16]: 103 % of control

c1ccc2c(c1)cc1ccc3cc4ccccc4c4ccc2c1c34
T/C (dose: 50.0 mg/kg/injection, schedule: Q01DX009 (ip), vehicle: acetone): 110 % of control
T/C [12]: 100 % of control
T/C (dose: 100.0 mg/kg/injection, schedule: Q01DX009 (ip), vehicle: acetone): 105 % of control
T/C [13]: 100 % of control
T/C (dose: 200.0 mg/kg/injection, schedule: Q01DX009 (ip), vehicle: acetone): 107 % of control
T/C [14]: 100 % of control

OC1c2ccccc2C(c2ccccc2)C1c1ccccc1 (centres undefined)
T/C [10]: 87 % of control
T/C [11]: 90 % of control

NC1=NCN(c2ccc(Oc3ccc(S(=O)(=O)F)cc3)cc2)C(N)=N1
T/C [1]: 93 % of control
T/C [2]: 101 % of control
T/C [3]: 104 % of control

O=[N+]([O-])/C=C/c1c(O)c(Cl)cc(Cl)c1Cl
T/C (dose: 12.5 mg/kg/injection, schedule: Q04DX002 (ip), vehicle: Klucel (hydroxypropylcellulose) (HPC)): 92 % of control
T/C (dose: 25.0 mg/kg/injection, schedule: Q04DX002 (ip), vehicle: Klucel (hydroxypropylcellulose) (HPC)): 92 % of control
T/C (dose: 50.0 mg/kg/injection, schedule: Q04DX002 (ip), vehicle: Klucel (hydroxypropylcellulose) (HPC)): 95 % of control

O=C(C[n+]1ccc2ccccc2c1)c1ccc(-c2ccccc2)cc1
T/C [4]: 98 % of control
T/C [6]: 105 % of control
T/C (dose: 100.0 mg/kg/injection, schedule: Q01DX001 (ip), vehicle: saline): 94 % of control
T/C [8]: 100 % of control
T/C (dose: 200.0 mg/kg/injection, schedule: Q01DX001 (ip), vehicle: saline): 101 % of control

CN(N=O)C(=O)Nc1ccc(F)cc1
T/C (dose: 6.25 mg/kg/injection, schedule: Q01DX Z (ip), vehicle: carboxymethylcellulose (CMC)): 110 % of control
T/C (dose: 12.5 mg/kg/injection, schedule: Q01DX Z (ip), vehicle: carboxymethylcellulose (CMC)): 103 % of control
T/C (dose: 25.0 mg/kg/injection, schedule: Q01DX Z (ip), vehicle: carboxymethylcellulose (CMC)): 111 % of control
T/C (dose: 75.0 mg/kg/injection, schedule: Q01DX001 (ip), vehicle: carboxymethylcellulose (CMC)): 120 % of control

CCOc1ccc(-c2cc(=O)c3c(OC)c(OC)c(OC)c(OC)c3o2)cc1
T/C [15]: 111 % of control
T/C [16]: 96 % of control
T/C (dose: 400.0 mg/kg/injection, schedule: Q01DX001 (sc), vehicle: steriod suspending solution): 96 % of control

O=c1c2ccccc2nc(CCN(CCCl)CCCl)n1-c1ccc(Cl)cc1
T/C (dose: 150.0 mg/kg/injection, schedule: Q04DX002 (ip), vehicle: Klucel (hydroxypropylcellulose) (HPC)): 92 % of control
T/C (dose: 200.0 mg/kg/injection, schedule: Q04DX002 (ip), vehicle: Klucel (hydroxypropylcellulose) (HPC)): 98 % of control
T/C (dose: 400.0 mg/kg/injection, schedule: Q04DX002 (ip), vehicle: Klucel (hydroxypropylcellulose) (HPC)): 106 % of control
